Results reported in patent US11473088B2, “Method of treating cancer and method of sensitizing cancer cells to the action of chemotherapeutic agents via growth hormone receptor antagonists or knock down” (Ohio University, priority 2016, dated 2022).

Legend:
Type in all cases: cell-based, human
MDA-MB-435 cells = assay: RT-qPCR of RNA levels after hGH addition or GHR-KD
Protocol: (§1) For hGH treatment, 16 hours after seeding (or 24 hours post-transfection), the cells were serum-starved for 2 hours in serum-free growth media, and hGH (phosphate buffered saline was used as control where applicable) was added at the noted concentrations (0-, 5-, 50-, and 150 ng/ml). Cells were subsequently incubated for 24 hours before evaluating RNA levels. Recombinant hGH was purchased from Antibodies Online (#ABIN2017921, Atlanta, Ga.).
(§2) Transfection was performed using siLentFect lipid reagent (Biorad #170-3360, Hercules, Calif.) following the manufacturer's protocol. […] Mock transfections were performed using universal scrambled negative control siRNA-duplex (Origene #SR30004). TYE-563-fluorescent labeled siRNA duplex (Origene #SR30002) was used as the transfection control. Cells were trypsinized, counted using a Countess Automated Cell Counter (Life Technologies, Carlsbad, Calif.), and seeded at 25,000-30,000 cells/cm^2, the cells being allowed to attach for 16-18 hours. The growth media was replaced with fresh antibiotic free complete growth medium just prior to transfection. […] Media was changed to complete growth medium plus antibiotics after 24 hours. RNA levels were analyzed 48 hours post-transfection, and protein levels were analyzed at 60 hours post-transfection.
(§3) RNA extraction was performed using the IBI-Trizol based total RNA purification kit (MidSci #IB47632, St. Louis, Mo.), and reverse transcription was performed using Maxima First Strand cDNA synthesis kit (Thermo Fisher Scientific #K1642, Waltham, Mass.) following the manufacturers' protocols. Real time-quantitative PCR and melt curve analysis were performed using Maxima SYBR-Green qPCR master mix (Thermo Fisher Scientific #K0241) and a T100 thermal cycler (Biorad #1861096, Hercules, Calif.). RNA and DNA concentrations were estimated using a Nanodrop2000 (Thermo Fisher Scientific, Waltham, Mass.) spectrophotometer. Primers were obtained from Sigma-Aldrich for the following human genes, with primer efficiency being experimentally confirmed: GAPDH, b-Actin, GHR, GHRHR, SOCS2, IGF1, IGF1R, IGF2, IGF2R, PRL, PRLR, insulin (Ins), IR, IGFBP2, IGFBP3, EGFR, HGF, cMET and ERBB3. Each sample represented a pool of two replicates per experiment. Experiments were performed at least three times. Each qPCR for individual genes and every treatment for every cell type was performed in triplicates.
(§4) And so—referring now to FIGS. 12A-12B, 17A-17C, 18A-18F, 19A-19F, and 20A-20F—RT-qPCR analysis of GH-IGF axis in human melanoma cells (FIGS. 12A-12B) and RT-qPCR analysis of GH-GHR and PRL-PRLR pairs in human melanoma cells (FIGS. 17A-17C) was performed. […] And, while not shown in FIGS. 12A and 12B, similar results for MALME-3M, MDA-MB-435 and SK-MEL-5 human melanoma cells are presented in FIGS. 13A-13L, 17A-17C, 18A-18F, 19A-19F, and 20A-20F. […] In all cases, exogenous hGH treatment was for 24 hr. RNA levels were normalized against expression of beta-actin and GAPDH as reference genes. […] Cells were grown in presence of 50 ng/mL exogenous GH and protein level changes were estimated 60 hr. post-transfection. [*, p<0.05, Students t test, n=3]. […] The percentage free area at the end time point was calculated using ImageJ software and reflected the decrease/inhibition in migration. […] [*, p<0.05, Students t-test, n=3]. In all cases, exogenous hGH treatment was for 24 hr. RNA levels were normalized against expression of β-actin and GAPDH as reference genes [*, p<0.05, Wilcoxon sign rank test, n=4]. […] In all cases, exogenous hGH treatment was for 24 hr. RNA levels were normalized against expression of β-actin and GAPDH as reference genes. [*, p<0.05, Wilcoxon sign rank test, n=4]

SK-MEL-28 cells = assay: RT-qPCR of RNA levels after hGH addition or GHR-KD
Protocol: as §1, §2, §3, §4

MALME-3M cells [1] = assay: RT-qPCR of RNA levels after hGH addition or GHR-KD; conditions: 0, 5, 50 and 150 ng/mL hGH, 24 hr
Protocol: as §1, §2, §3, §4

MALME-3M cells [2] = assay: Cell proliferation (resazurin) assay; conditions: 48 hr
Protocol: as §1
On the other hand, a pronounced drop in proliferation levels in all the cell lines was seen when GHR was knocked down. […] Cell proliferation was estimated using resazurin-based metabolic assay. […] Averages of at least four independent experiments performed in quadruplicate were taken [*, p<0.05, Students t-test]. The results may indicate that human melanoma cells utilize GH-GHR interaction to drive aggressive tumor phenotypes.
To determine this, and referring now to FIGS. 35A-35D, changes in amounts of calcein retained inside cells following treatment with calcein-AM ester was analyzed by the fluorescence readout from intracellular calcein. Increased abundance of transporter pumps is reflected by decreased levels of intracellular calcein. […] Assays were performed 48 hr. post-transfection with either scr-siRNA or GHR-siRNA. […] SK-MEL-28 (FIG. 35C) and MALME-3M (FIG. 35D) cells were exposed to DMSO (vehicle), or 10 um cisplatin (Cis), or 5 nM paclitaxel (Pac) for 24 hr. Treatments were done 48 hr. post-transfection with either scr-siRNA (scr) or GHR-siRNA (GHR). Mean of three independent experiments performed in triplicate was taken. [*, p<0.05, Students t test, n=3]

[3] = 0, 5, 50 and 150 ng/mL hGH, 24 hr

**Q.** What does the source list for “hGH: Recombinant human growth hormone, Antibodies Online #ABIN2017921”?
**A.** E-cadherin RNA levels with increasing GH (MDA-MB-435 cells): decreased significantly; IGFBP2 RNA levels at high GH levels (SK-MEL-28 cells): increase; N-cadherin RNA levels with increase of GH (SK-MEL-28 cells): significant dose-dependent increase; vimentin RNA levels with increase of GH (SK-MEL-28 cells): significant dose-dependent increase; RNA levels of MITF with GH (SK-MEL-28 cells; [3]): dose dependent increase; RNA levels of TYRP1 with GH (SK-MEL-28 cells; [3]): dose-dependent increase; RNA levels of TYRP1 with GH (MALME-3M cells [1]): dose-dependent increase; Cell proliferation induced by hGH-excess (increase) (MALME-3M cells [2]; 50 ng/ml hGH): 248%; increase in proliferation (MALME-3M cells [2]; 150 ng/mL hGH): more than 300%
